Experimental data from patent publication US20030134401A1, “Process for the stereoselective preparation of functionalized vicinal diols” (priority 2001, published 2003).

Legend:
whole cell R. glutinis = assay: Hydrolysis of epoxy nitriles by whole resting cells of Rhodotorula glutinis; type: cell-based, Rhodotorula glutinis CBS 8761; details: 50 mM potassium phosphate buffer pH 7.5, 35-37° C., 10 mM epoxide
Description: The racemic resolution of the epoxy nitriles was performed with 24 g/L (dry weight) of whole resting cells of Rhodotorula glutinis CBS 8761 in an aqueous solution of 50 mM potassium phosphate buffer at pH 7.5, 35-37° C. The starting epoxide concentration used was 10 mM. After 150 minutes the resolution was stopped by centrifugation and separation of the supernatant liquid and enantiopure epoxide (>99% ee, GC-analysis) could be obtained with 50% conversion (100% of the theoretical yield).
Determination of reaction and extraction progress as well as enantiomeric excess were performed by gas chromatography (GC) using fused silica cyclodextrin capillary column (FS-CYCLODEX alpha-I/P 50 m length, 0.32 mm ID, Chromatography Service GmbH) on an Hewlett-Packard 6890 gas chromatograph equipped with FID detector and using H2 as carrier gas at 120° C. and 0.6 bar pressure.
Examples 12 and 13 were carried out analogously to examples 8 and 10 using 2-cyano-3,3-dimethyl-oxirane as substrate.

Eph1 = assay: Hydrolysis of epoxy nitriles by cell free extract of recombinant E. coli BL21(DE3)[pEph1]; type: biochemical, Rhodotorula glutinis; details: 50 mM potassium phosphate buffer pH 7.5, 35-37° C., 10 mM epoxide
Description: Cell extracts (from cell suspensions prepared according to examples 9, 10 and 11) were prepared by sonication (5 minutes, duty cycle 30%, output control 3) using a Branson sonifier 250. To separate the cell extracts in a soluble and an insoluble fraction the disrupted cells in KPi-buffer were centrifuged for 10 minutes at 4° C. and 20,000×g. The supernatant, containing the soluble proteins, was called the S-fraction. The pellet, containing the insoluble proteins and cell debris, was resuspended in an equal volume of KPi-buffer and referred to as the P-fraction.
The racemic resolution of the epoxy nitrile was performed with the cell free extracts of E. coli BL21(DE3)[pEph1] containing 48 mg protein/L in an aqueous solution of 50 mM potassium phosphate buffer at pH 7.5, 35-37° C. The starting epoxide concentration used was 10 mM. After 150 minutes the resolution was stopped by short and rapid heating to 80° C. and enantiopure epoxide (>99% ee, GC-analysis) could be obtained with 50% conversion (100% of the theoretical yield). […]

| SMILES | activity [U/g (dry weight)] whole cell R. glutinis (whole cell R. glutinis) | activity [U/g (protein)] cell free extract E. coli (Eph1) |
| --- | --- | --- |
| CC1(C)OC1C#N (stereo not shown) [2-cyano-3,3-dimethyl-oxirane] | 3 (example 18) U/g (dry weight) | 300 (example 19) U/g (protein) |
| N#CC1OC12CCCCC2 (racemic) [1-oxa-spiro[2.5]octane-2-carbonitrile] | 6 (example 14) U/g (dry weight) | 3000 (example 16) U/g (protein) |
